From patent US9365522B2, “Pyrazole amide derivative” (AMGEN INC., priority 2015, dated 2016)

Molecular target: T1, human RORγ-LBD (Homo sapiens, UniProt P51449)
T1 construct: made in house; host or cells: E. coli (BL-21)
T1 sequence (P51449 262-518): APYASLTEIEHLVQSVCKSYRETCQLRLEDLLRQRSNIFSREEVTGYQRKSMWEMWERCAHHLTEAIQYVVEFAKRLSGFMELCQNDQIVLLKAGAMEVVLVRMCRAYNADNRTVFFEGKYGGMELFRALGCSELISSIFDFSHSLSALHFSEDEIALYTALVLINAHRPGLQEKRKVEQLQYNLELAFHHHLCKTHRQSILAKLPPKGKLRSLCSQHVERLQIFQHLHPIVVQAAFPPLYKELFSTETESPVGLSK
Test: ROR gamma coactivator peptide recruitment Alphascreen assay (RORγ-LBD binding to GRIP1 coactivator peptide)
Format: biochemical
Conditions: 5 nM human RORγ-LBD, 30 nM 7-β-hydroxycholesterol, 50 nM biotinylated GRIP1 coactivator peptide, overnight incubation at room temperature; read-out: result (pIC50, RORγ coactivator peptide recruitment Alphascreen assay) (converted)
Text: Alphascreen™ is a bead-based amplified homogenous luminescent proximity assay that can be used for measuring the effect of compounds on protein-protein interactions. When biological interactions bring donor and acceptor beads into close proximity, reactive oxygen, generated upon laser excitation of the donor beads, initiates a luminescence/fluorescence cascade in the acceptor beads that leads to a highly amplified signal that can be measured as light in the 520-620 nm range. When the acceptor and donor beads are not in proximity, the reactive oxygen decays and only a very low background signal is generated.
An in vitro assay to assess inhibition of RORγ binding to the coactivator GRIP1 was established using Alphascreen™ technology. The interaction between nuclear receptors (NR) and coactivator proteins is a key step in signal transduction from the receptor to the transcriptional machinery and can be measured in vitro using only the ligand binding domain of the nuclear receptor and a peptide containing a coactivator protein LXXLL nuclear receptor binding motif
For the RORγ construct used in the coactivator recruitment assay, nucleotides corresponding to the ligand binding domain (LBD) of wild type human RORγ (amino acids 262-518 of Genbank Accession No. NM_005060.3) were cloned into the pET24 expression vector (Novagen), downstream of in-frame N-terminal 6×His and Flag tag sequences. Recombinant 6×His:Flag-tagged human RORγ-LBD protein was expressed in E. coli (BL-21) and purified by affinity chromatography on a nickel Sepharose column, followed by anion exchange chromatography.
A 4× assay mixture of 6×His:Flag-tagged human RORγ-LBD with the agonist ligand 7-β-hydroxycholesterol was prepared in assay buffer (50 mM HEPES pH 7.4, BSA 0.05%, 150 mM NaCl, 5 mM MgCl2, 1 mM DTT, 0.01% Tween-20). For control wells a 4× mixture of 6×His:Flag-tagged human ROR gamma LBD alone was also prepared.
A 4× stock of biotinylated coactivator peptide containing the LXXLL motif from GRIP1 (Biotin-[…]) was prepared in assay buffer.
A 4×detection mixture of nickel chelate Alphascreen™ acceptor beads (PerkinElmer) and streptavidin Alphascreen™ donor beads (PerkinElmer) was prepared in assay buffer.
Compounds to be tested were arranged in a pre-dose 384-well mother plate serially diluted 1 in 2 over 22 columns, in 100% DMSO, at 40× the final test concentration, from a high concentration of 4 mM. DMSO with no compound was placed in control columns. The compounds were robotically dispensed directly into assay plates containing assay buffer to a 4× final test concentration.
Following compound addition, the 6×His:Flag-tagged human RORγ-LBD plus 7-β-hydroxycholesterol assay mixture, biotinylated coactivator peptide and detection mixture were added. Final assay conditions were 5 nM 6×His:Flag-tagged human RORγ-LBD, 30 nM 7-β-hydroxycholesterol, 50 nM biotinylated coactivator peptide, 2.5 ug/ml nickel acceptor beads and 10 ug/ml streptavidin donor beads. The final concentration of DMSO in the assay was 2.5%.
After overnight incubation at room temperature plates were read on and Envision™ plate reader (PerkinElmer).
Data was plotted and pIC50 values were calculated using the Genedata Screener™ data analysis suite (Genedata).

| IC50 [nM] | Compound |
| --- | --- |
| 2570 | CC(C)(C)CN(C[C@@H](O)c1c(Cl)cccc1Cl)C(=O)c1cnn([C@H]2CC[C@H](C(=O)O)CC2)c1C(F)(F)F [Example 574, trans-4-(4-(((2S)-2-(2,6-dichlorophenyl)-2-hydroxyethyl)(2,2-dimethylpropyl)carbamoyl)-5-(trifluoromethyl)-1H-pyrazol-1-yl)cyclohexanecarboxylic acid] |
| 3.09 | C[C@@H]1C[C@@H](n2ncc(C(=O)N(CC(=O)c3c(Cl)cncc3Cl)CC3(F)CCCC3)c2C(F)(F)F)CC[C@@H]1C(=O)O [Example 810, (1S,2R,4S)-4-(4-((2-(3,5-dichloro-4-pyridinyl)-2-oxoethyl)((1-fluorocyclopentyl)methyl)carbamoyl)-5-(trifluoromethyl)-1H-pyrazol-1-yl)-2-methylcyclohexanecarboxylic acid] |
| 33.9 | C[C@@H]1C[C@](C)(C(=O)O)CC[C@@H]1n1ncc(C(=O)N(CC(=O)c2c(Cl)cncc2Cl)CC(C)(C)C)c1C(F)(F)F [Example 857, (1R,3R,4S)-4-(4-((2-(3,5-dichloro-4-pyridinyl)-2-oxoethyl)(2,2-dimethylpropyl)carbamoyl)-5-(trifluoromethyl)-1H-pyrazol-1-yl)-1,3-dimethylcyclohexanecarboxylic acid] |
| 195 | CC(C)(C)CN(CC(=O)c1c(Cl)cncc1Cl)C(=O)c1cnn([C@H]2CC[C@@H](CS(C)(=O)=O)CC2)c1C(F)(F)F [Example 841, N-(2-(3,5-dichloro-4-pyridinyl)-2-oxoethyl)-N-(2,2-dimethylpropyl)-1-(cis-4-((methylsulfonyl)methyl)cyclohexyl)-5-(trifluoromethyl)-1H-pyrazole-4-carboxamide] |
| 5.75 | C[C@@H]1C[C@](C)(C(=O)O)CC[C@H]1n1ncc(C(=O)N(CC(=O)c2c(Cl)cncc2Cl)CC(C)(C)C)c1C(F)(F)F (stereo in doubt) [Example 855, (1R,3R,4R)-4-(4-((2-(3,5-dichloro-4-pyridinyl)-2-oxoethyl)(2,2-dimethylpropyl)carbamoyl)-5-(trifluoromethyl)-1H-pyrazol-1-yl)-1,3-dimethylcyclohexanecarboxylic acid] |
| 3.55 | Cc1cc(Cl)c(C(=O)CN(C(=O)c2cnn([C@H]3CC[C@](C)(C(=O)O)CC3)c2C(F)(F)F)[C@H]2C[C@@H]3[C@H](C2)C3(C)C)c(Cl)n1 [Example 714, trans-4-(4-((2-(2,4-dichloro-6-methyl-3-pyridinyl)-2-oxoethyl)((1R,3r,5S)-6,6-dimethylbicyclo[3.1.0]hex-3-yl)carbamoyl)-5-(trifluoromethyl)-1H-pyrazol-1-yl)-1-methylcyclohexanecarboxylic acid] |
| 6.03 | Cc1cc(Cl)c(C(=O)CN(C[C@H]2CC(C)(C)O2)C(=O)c2cnn([C@H]3CC[C@](C)(C(=O)O)CC3)c2C(F)(F)F)c(Cl)c1 [Example 724, trans-4-(4-((2-(2,6-dichloro-4-methylphenyl)-2-oxoethyl)(((2R)-4,4-dimethyl-2-oxetanyl)methyl)carbamoyl)-5-(trifluoromethyl)-1H-pyrazol-1-yl)-1-methylcyclohexanecarboxylic acid] |
| 60.3 | C[C@]1(C(=O)O)CC[C@H](n2ncc(C(=O)N(CC(=O)c3c(Cl)cncc3Cl)[C@@H]3CCC34CCC4)c2C(F)(F)F)CC1 [Example 749, trans-4-(4-((2-(3,5-dichloro-4-pyridinyl)-2-oxoethyl)((1R)-spiro[3.3]hept-1-yl)carbamoyl)-5-(trifluoromethyl)-1H-pyrazol-1-yl)-1-methylcyclohexanecarboxylic acid] |
| 1070 | CO[C@@H](CN(CC(C)(C)C)C(=O)c1cnn([C@H]2CC[C@H](C(=O)O)CC2)c1C(F)(F)F)c1c(Cl)cc(C)cc1Cl [Example 531, trans-4-(4-(((2R)-2-(2,6-dichloro-4-methylphenyl)-2-methoxyethyl)(2,2-dimethylpropyl)carbamoyl)-5-(trifluoromethyl)-1H-pyrazol-1-yl)cyclohexanecarboxylic acid] |
| 12.9 | CCOC(C)(C)CN(CC(=O)c1c(Cl)cncc1Cl)C(=O)c1cnn([C@H]2CC[C@](C)(C(=O)O)CC2)c1C(F)(F)F [Example 850, trans-4-(4-((2-(3,5-dichloro-4-pyridinyl)-2-oxoethyl)(2-ethoxy-2-methylpropyl)carbamoyl)-5-(trifluoromethyl)-1H-pyrazol-1-yl)-1-methylcyclohexanecarboxylic acid] |
| 1.55 | C[C@@H]1C[C@@H](n2ncc(C(=O)N(CC(=O)c3c(Cl)cccc3Cl)CC3(C)CCC3)c2C(F)(F)F)CC[C@@H]1C(=O)O [Example 781, (1S,2R,4S)-4-(4-((2-(2,6-dichlorophenyl)-2-oxoethyl)((1-methylcyclobutyl)methyl)carbamoyl)-5-(trifluoromethyl)-1H-pyrazol-1-yl)-2-methylcyclohexanecarboxylic acid] |
| 2.09 | Cc1cc(Cl)c(C(=O)CN(Cc2cc(F)c(C(F)(F)F)c(F)c2)C(=O)c2cnn([C@H]3CC[C@H](C(=O)O)CC3)c2C(F)(F)F)c(Cl)c1 [Example 522, trans-4-(4-((2-(2,6-dichloro-4-methylphenyl)-2-oxoethyl)(3,5-difluoro-4-(trifluoromethyl)benzyl)carbamoyl)-5-(trifluoromethyl)-1H-pyrazol-1-yl)cyclohexanecarboxylic acid] |
| 3.47 | CC1(C)CC(CN(CC(=O)c2c(Cl)cccc2Cl)C(=O)c2cnn([C@H]3C[C@H](CC(=O)O)C3)c2C(F)(F)F)C1 [Example 668, (trans-3-(4-((2-(2,6-dichlorophenyl)-2-oxoethyl)((3,3-dimethylcyclobutyl)methyl)carbamoyl) 5-(trifluoromethyl)-1H-pyrazol-1-yl)cyclobutyl)acetic acid] |
| 1.66 | CC1(CN(CC(=O)c2c(Cl)cc(F)cc2Cl)C(=O)c2cnn([C@H]3CC[C@](C)(C(=O)O)CC3)c2C(F)(F)F)CCC1 [Example 691, trans-4-(4-((2-(2,6-dichloro-4-fluorophenyl)-2-oxoethyl)((1-methylcyclobutyl)methyl)carbamoyl)-5-(trifluoromethyl)-1H-pyrazol-1-yl)-1-methylcyclohexanecarboxylic acid] |
| 3.98 | C[C@]1(C(=O)O)CC[C@H](n2ncc(C(=O)N(CC(=O)c3c(Cl)cc(F)cc3Cl)CC3CCC3)c2C(F)(F)F)CC1 [Example 694, trans-4-(4-((cyclobutylmethyl)(2-(2,6-dichloro-4-fluorophenyl)-2-oxoethyl)carbamoyl)-5-(trifluoromethyl)-1H-pyrazol-1-yl)-1-methylcyclohexanecarboxylic acid] |
| 3.98 | CC(C)[C@H]1C[C@H](Cc2c(Cl)cncc2Cl)N(C(=O)c2cnn([C@H]3CC[C@](C)(C(=O)O)CC3)c2C(F)(F)F)C1 [Example 747, trans-4-(4-(((2R,4R)-2-((3,5-dichloro-4-pyridinyl)methyl)-4-(2-propanyl)-1-pyrrolidinyl)carbonyl)-5-(trifluoromethyl)-1H-pyrazol-1-yl)-1-methylcyclohexanecarboxylic acid] |
| 3.72 | C[C@H](C(=O)O)[C@H]1C[C@H](n2ncc(C(=O)N(CC(=O)c3c(Cl)cccc3Cl)[C@H]3C[C@@H]4[C@H](C3)C4(C)C)c2C(F)(F)F)C1 [Example 772, (S)-2-((1R,3S)-3-(4-((2-(2,6-dichlorophenyl)-2-oxoethyl)((1R,3r,5S)-6,6-dimethylbicyclo[3.1.0]hexan-3-yl)carbamoyl)-5-(trifluoromethyl)-1H-pyrazol-1-yl)cyclobutyl)propanoic acid] |
